In patent publication US20070264661A1, “METHOD FOR RAPID IDENTIFICATION OF MOLECULES WITH FUNCTIONAL ACTIVITY TOWARDS BIOMOLECULAR TARGETS” (Isis Pharmaceuticals, Inc., priority 2003, published 2007):

Experiments:
[1] = tested on: 16S control construct (16Sc); assay: ESI-FTICR MS screening for noncovalent binding to the 16Sc control RNA construct; set-up: species or system E. coli
Experimental: (§1) Samples were brought to 0.1% heptafluorobutyric acid (HFBA) by the addition of 1% HFBA. A Gilson HPLC system consisting of four 306 pumps and a Gilson 215 liquid handler was used to perform the separations. Sample injection volume was 3 mL. Separation was carried out using a 250×10 mm Phenomenex Aqua C18 column, with a 50×10 mm guard column. Components were eluted using 0.1% HFBA and a gradient of 0 to 40% Acetonitrile (ACN) at a flow rate of 3 mL/min. over 45 minutes. 1 mL fractions were collected every 20 seconds and were assayed without further preparation.
RNA constructs 16S and 16Sc (FIG. 1A) were obtained from Dharmacon Research, Boulder, Colo. The 16Sc construct contains an 18-atom hexaethylene glycol chain attached to the 5′ terminus of the oligonucleotide as supplied by the manufacturer. The addition of this chain results in a net addition of C12H24O9 P (monoisotopic mass calc 344.1236) to the 16Sc oligonucleotide sequence shown in FIG. 1. The RNA was deprotected according to the manufacturer's directions and ethanol precipitated twice from 1 M ammonium acetate. […]
The presence of both a specific (16S) and non-specific (16Sc) RNA construct enables the simultaneous determination of binding specificity between target and ligand. In the absence of ligand, the initial peak intensity ratio of 16Sc/16S was determined to be 0.3 as shown in the control spectrum shown in FIG. 1B. […]

[2] = tested on: E. coli 16S ribosomal A-site (16S) 27-mer synthetic RNA construct; assay: ESI-FTICR MS screening for noncovalent binding to the 16S RNA construct
Experimental: as §1
RNA constructs 16S and 16Sc (FIG. 1A) were obtained from Dharmacon Research, Boulder, Colo. The 16Sc construct contains an 18-atom hexaethylene glycol chain attached to the 5′ terminus of the oligonucleotide as supplied by the manufacturer. The addition of this chain results in a net addition of C12H24O9 P (monoisotopic mass calc 344.1236) to the 16Sc oligonucleotide sequence shown in FIG. 1. The RNA was deprotected according to the manufacturer's directions and ethanol precipitated twice from 1 M ammonium acetate. Paromomycin (MW=615.2963 Da), was obtained from Sigma (St. Louis, Mo.) and ICN (Costa Mesa, Calif.).
The construct shown on the left in FIG. 1A (16S) is the 27-mer synthetic RNA containing the E. coli 16S ribosomal A-site (Purohit, P.; Stern, S. Nature 1994, 370, 659-662). Two positions in the E. coli 16S RNA are noted numerically as 1408 and 1492, referring to the location of these residues in the intact 16S rRNA. These positions have been previously shown to be critical for aminoglycoside recognition and binding (Griffey, R. H.; Hofstadler, S. A.; Sannes-Lowery, K. A.; Ecker, D. J.; Crooke, S. T. Proc. Natl. Acad. Sci. U. S. A. 1999, 96, 10129-10133; Fourmy, D.; Recht, M. I.; Blanchard, S. C.; Puglisi, J. D. Science (Washington, D.C.) 1996, 274, 1367-1371).
Mass spectrometry was performed on a modified Bruker Daltonics (Billerica, Mass.) Apex II 70e electrospray ionization Fourier transform ion cyclotron resonance mass spectrometer equipped with an actively shielded 7 tesla superconducting magnet. Experiments were performed with the source at room temperature, the skimmer potential was held at 0 volts, the capillary exit potential was −126 volts, and other experimental parameters were as described in detail elsewhere (Sannes-Lowery, K. A.; Drader, J. J.; Griffey, R. H.; Hofstadler, S. A. TrAC, Trends Anal. Chem. 2000, 19, 481-491). Binding reactions were comprised of 15 μl of a solution containing 2.5 μM 16S and 16Sc in 100 mM NH4OAc and 33% isopropyl alcohol and 2 μl of the LC fraction in a 96-well microtiter plate. […] The plates were vortexed briefly, and then incubated for 60 minutes at room temperature prior to analysis. Sample aliquots were injected directly from 96-well microtiter plates using a CTC HTS PAL autosampler (LEAP Technologies, Carrboro, N.C.).
The presence of both a specific (16S) and non-specific (16Sc) RNA construct enables the simultaneous determination of binding specificity between target and ligand. In the absence of ligand, the initial peak intensity ratio of 16Sc/16S was determined to be 0.3 as shown in the control spectrum shown in FIG. 1B. The peak intensity ration of 16Sc/16S should remain constant in the absence of ligand binding activity. If a ligand specifically binds the 16S RNA target, the peak intensity ratio of 16Sc/16S will […], while a ligand that binds non-specifically to both targets will not cause a significant change in the peak intensity ratio of 16Sc/16S. Thus, monitoring the 16Sc/16S peak intensity ratio is a convenient metric for characterizing binding specificity.

NC[C@@H]1O[C@H](O[C@H]2[C@@H](O)[C@H](O[C@@H]3[C@@H](O)[C@H](N)C[C@H](N)[C@H]3O[C@H]3O[C@H](CO)[C@@H](O)[C@H](O)[C@H]3N)O[C@@H]2CO)[C@H](N)[C@@H](O)[C@@H]1O [paromomycin, Paromomycin]
abundance of the non-specific complex of 16Sc+paromomycin (relative to 16Sc) ([1]; fraction 146 (~54.7 minutes), FIG. 4): 13%
binding to the 16Sc RNA (result in words) ([1]; fraction #131, peak would be expected at m/z 1982.11): does not indicate a peak corresponding to paromomycin binding to the 16Sc RNA
binding specificity 16S vs 16Sc (result in words) ([2]; 2.5 μM 16S and 16Sc, 100 mM NH4OAc, 33% isopropyl alcohol): binding specifically to 16S RNA
specificity for the 16S RNA target relative to the new molecule (59-fold vs. 5-fold) ([2]; fraction 146): approximately 11 fold
abundance of the specific complex of 16S+paromomycin compared to 16S ([2]; fraction 146 (~54.7 minutes) of S. rimosus sp. paromomycinus broth, 5- charge state, FIG. 4): 770%
specificity of binding to the 16S RNA target over the 16Sc RNA construct ([2]; fraction 146, ratio of complex abundances 16S vs 16Sc): approximately 59 fold
peak intensity ratio of 16Sc/16S RNA ([2]; fraction #131 (~49.5 minutes), baseline ratio without ligand 0.3): 0.79
number of paromomycin molecules binding to 16S and 16Sc RNA ([2]; peak of the paromomycin elution (e.g. fraction 138), data not shown): one to four
